According to patent US20130164337A1, “ANTIMICROBIAL ACTION PHARMACEUTICAL COMPOSITION FOR PARENTERAL ADMINISTRATION AND ITS PRODUCTION PROCESS” (priority 2010, published 2013):

Key:
Assay in all cases: Experimental sepsis model in mice, survival on the 7th day
Assay type in all cases: in vivo
[1] = test system: Pseudomonas aeruginosa (ATCC 27853 F-51); conditions: Pseudomonas aeruginosa 5×10^8 CFU/mouse; 100 mg/kg intravenous daily during 3 days; hybrid mice (CBA×C57Black/6)CBF1
Source text: (§1) To determine therapeutic efficiency of betalactam and their pharmaceutical compositions including BHSiO2, we used experimental sepsis models and a statistical processing method of the received data (χ^2) according to [22, 23].
(§2) Microorganisms: Staphylococcus aureus (ATCC ? 25923 F-49), Escherichia coli (ATCC ? 25922 F-50), Pseudomonas aeruginosa (ATCC ? 27853 F-51).
(§3) Animals: for the experiments we used hybrid mice (CBA×C57Black/6)CBF1 according to the “Regulations for test animals use” (USSR Ministry of health order supplement ? 755 from 12.08. 1977).
(§4) The mice have been injected 0.8 ml of Pseudomonas aeruginosa daily culture suspension with a dosage 5×10^8 CFU/mouse or Staphylococcus aureus daily culture suspension with a dosage of 10^10 CFU/mouse or Escherichia coli daily culture suspension with a dosage of 8×10^8 CFU/mouse.
(§5) The control group has been injected with 0.8 ml of normal saline solution (0.9% sodium chloride solution). In a day after being infected the test mice have been daily (during 3 days) intravenous injected with 100 mg/kg of antibiotics or different pharmaceutical compositions (antibiotic/BHSiO2) watered down with 0.25 ml of normal saline solution. The control group of mice has been injected using the same scheme with normal saline solution […].
(§6) Antibacterial therapy efficiency was evaluated basing on the quantity of the surviving animals on the 7th day after being infected.
(§7) The obtained data shown in Table ? 3 reflect the results of 3 independent experiments (for each preparation research were used not less than 30 test animals in total).

[2] = test system: Escherichia coli (ATCC 25922 F-50); conditions: Escherichia coli 8×10^8 CFU/mouse; 100 mg/kg intravenous daily during 3 days; hybrid mice (CBA×C57Black/6)CBF1
Source text: as §1, §2, §3, §4, §5, §6, §7

[3] = test system: Staphylococcus aureus (ATCC 25923 F-49); conditions: Staphylococcus aureus 10^10 CFU/mouse; 100 mg/kg intravenous daily during 3 days; hybrid mice (CBA×C57Black/6)CBF1
Source text: as §1, §2, §3, §4, §5, §6, §7

| Structure (SMILES) | Mice survival rate on the 7th day of infection [1] | Mice survival rate on the 7th day of infection [2] | Mice survival rate on the 7th day of infection [3] |
| --- | --- | --- | --- |
| CO/N=C(\C(=O)N[C@@H]1C(=O)N2C(C(=O)[O-])=C(C[N+]3(C)CCCC3)CS[C@H]12)c1csc(N)n1 [Cefepime] | 46.7% (14/30) | 43.7% (14/32) | 46.7% (14/30) |
| Cc1nnc(SCC2=C(C(=O)O)N3C(=O)[C@@H](NC(=O)Cn4cnnn4)[C@H]3SC2)s1 [Cefazolin] |  |  | 37.5% (12/32) |
| C[C@H]1[C@H](NC(=O)/C(=N\OC(C)(C)C(=O)O)c2csc(N)n2)C(=O)N1S(=O)(=O)O [Aztreonam] | 74.4% (32/43) | 77.5% (31/40) |  |
| CO/N=C(\C(=O)N[C@@H]1C(=O)N2C(C(=O)O)=C(COC(N)=O)CS[C@H]12)c1ccco1 [Cefuroxime] |  | 43.7% (14/32) | 40.0% (14/35) |
| CC1(C)S[C@@H]2[C@H](NC(=O)C(C(=O)O)c3ccccc3)C(=O)N2[C@H]1C(=O)O (stereo partly drawn) [Carbenicillin] | 43.3% (13/30) | 43.3% (13/30) | 46.7% (14/30) |
| CO[C@@]1(NC(=O)Cc2cccs2)C(=O)N2C(C(=O)O)=C(COC(N)=O)CS[C@@H]21 [Cefoxitin] |  | 46.7% (14/30) | 35.2% (15/34) |
| CC(C)(O/N=C(\C(=O)N[C@@H]1C(=O)N2C(C(=O)[O-])=C(C[n+]3ccccc3)CS[C@H]12)c1csc(N)n1)C(=O)O [Ceftazidime] | 43.3% (13/30) | 38.7% (15/31) |  |
| CO/N=C(\C(=O)N[C@@H]1C(=O)N2C(C(=O)O)=C(COC(C)=O)CS[C@H]12)c1csc(N)n1 [Cefotaxime] |  | 43.3% (13/30) | 40.0% (12/30) |
| CO/N=C(\C(=O)N[C@@H]1C(=O)N2C(C(=O)O)=C(CSc3nc(=O)c(=O)[nH]n3C)CS[C@H]12)c1csc(N)n1 [Ceftriaxone] |  | 41.9% (13/31) | 46.7% (14/30) |
| C[C@@H](O)[C@H]1C(=O)N2C(C(=O)O)=C(S[C@@H]3CN[C@H](C(=O)N(C)C)C3)[C@H](C)[C@H]12 [Meropenem] | 73.8% (31/42) | 78.0% (32/41) | 73.3% (22/30) |
| CCN1CCN(C(=O)N[C@@H](C(=O)N[C@@H]2C(=O)N3C(C(=O)O)=C(CSc4nnnn4C)CS[C@H]23)c2ccc(O)cc2)C(=O)C1=O [Cefoperazone] | 40.0% (12/30) | 45.2% (14/31) |  |
